In US12539281B2 (priority 2021, dated 2026):

What was measured:
[1] = test system: blood-brain barrier (BBB); test: Intraarterial EA-mediated antibody delivery into normal rat brain via left internal carotid artery catheter (Experiments 15-17); assay type: in vivo, rats
Description: The experimental rat is treated with IA 3% EA+50 μg goat anti-rat IgG (H+L) ALEXA FLUOR® 647 (ab150167, Cambridge, MA USA) via the left internal carotid artery catheter. The micrograph of the whole brain section is scanned with a fluorescence microscope. Two sections from the right and left hemispheres of the brain are selected respectively and are enlarged with a magnification of 63×. The scale bar used is 50 μm. The images of the left and right hemispheres, and the enlarged sections are studied.
EA-mediated antibody (goat anti-rat IgG (H+L) ALEXA FLUOR® 647) brain entry via catheter placement through the internal carotid artery (left) are tested. The cryosection photographs and images from the confocal microscope after EA treatment are taken for studies. An EA-untreated group is used as a control group. IA antibody [50 μg goat anti-rat IgG (H+L) ALEXA FLUOR® 647] and IA 3% EA+antibody [50 μg goat anti-rat IgG (H+L) ALEXA FLUOR® 647 are the two comparison groups.
An ALEXA FLUOR® 647 anti-human IgG antibody was applied via IA catheter delivery to rule out the nonspecific binding to the experimental rats. 3% EA-mediated antibody brain entry via catheter placement through the internal carotid artery (left) is tested and compared. The cryosection photographs and images from the confocal microscope after EA treatment are taken for studies. An EA-untreated group is used as a control group. IA antibody [50 μg ALEXA FLUOR® 647 anti-human IgG antibody (ab201841); and IA 3% EA+50 μg ALEXA FLUOR® 647 anti-human IgG antibody (ab201841, Cambridge, MA USA) are the two comparison groups.

tight junction proteins = settings: immediately after IA EA is administered
Source text: The membrane and cytosolic proteins are extracted with a MEM-PER™ Plus Membrane Protein Extraction Kit (ThermoFisher Scientific, Waltham, MA USA). Proteins are separated by SDS-PAGE and transferred to nitrocellulose membranes. Primary antibodies used are rabbit anti-claudin-3 (ab15102), rabbit anti-claudin-5 (ab15106), rabbit anti-claudin-6 (ab99226), rabbit anti-JAM (ab125886), rabbit anti-occludin (ab222691, 1:200, Abcam, Cambridge, MA USA), and mouse anti-β-actin (66009, 1:1000, Proteintech, Rosemont, IL USA). Secondary antibodies used are HRP-conjugated goat anti-mouse (SA00001, 1:2500, Proteintech) and goat anti-rabbit (7074, 1:2500, Cell Signaling Technology).
Western Blot examined and quantified the tight junction proteins in brain tissues.

[2] = test system: intracranial HER2-positive 4T1 breast cancer; settings: IA ethyl alcohol with IV Trastuzumab vs IV Trastuzumab, mice with intracranial HER2-positive 4T1 tumor
[3] = test system: blood-brain barrier (BBB); settings: 300 μl 3% EA via microcatheter in left ICA, IV 2% EB at 30 min intervals, rats
Source text: Evans blue (EB) dye is used as the non-BBB permeable substance.
In this experiment, the microcatheter is placed in the left internal carotid artery (ICA). The left internal carotid artery (ICA) leads to the left hemisphere of the brain. (That is, the selected intracerebral artery is the left internal carotid artery (ICA); and the target area is the left hemisphere of the brain.)

brain tumor = settings: IA ethyl alcohol + IA or IV Anti-PD-1, mice
Source text: The standard detailed protocol is followed. Primary antibodies used are FITC-conjugated Armenian hamster anti-mouse PD-1 (11-9985-82, ThermoFisher Scientific, San Diego, CA USA), and rat anti-mouse PD-1 (BE0146, Bio X Cell, West Lebanon, NH USA). The secondary antibody is ALEXA FLUOR® 647 goat anti-rabbit (ab150083, Abcam).

brain tissues = settings: IA 0.3% ethyl alcohol vs normal untreated mouse
Description: Ultrathin sections of the brains previously processed with Pelco BioWave Pro (Pelco, Fresno, CA USA) are cut at 99 nm and collected on 200-mesh copper grids. The grids are post-stained in uranyl acetate (0.2%) and filtered for 15 min. Grids are further stained with lead citrate and filtered for 5 min. The Tecnai Spirit G2TEM (Nanoscience Initiative, Nicholas Terrace, New York, USA) with an installed Mega View camera is used to image the samples. The micrographs are illustrated in FIG. 5 of the drawings. The scale bar is 2 μm.

[4] = test system: blood-brain barrier (BBB)
Description: Photographs of the rats in the prone and supine positions are taken for observation and further analysis.
Experimental rats are treated with varying concentrations of IA EA (in room temperature, 300 μl 5%, 3%, and 1% EA infused slowly in 1 minute, respectively) and are applied through the arterial catheter placed into the left internal carotid artery.
Experimental rats are treated with varying concentrations of IA EA (in room temperature, 300 μl 0.3%, 0.1%, and 0.01% EA infused slowly in 1 minute, respectively). They are applied through the arterial catheter placed into the left internal carotid artery.
The rapid visualization of the extravasated EB/albumin conjugate distribution after IA catheter delivery of 3% EA by fluorescence from EB dye by confocal microscopy is performed.
The fluorescence from EB dye permits the rapid visualization of extravasated EB/albumin conjugate distribution after IA catheter delivery of 3% EA. An untreated rat group is used as a control. IA 3% EA+2% EB solution treatment is used as the testing group.
The photographs of cryostatic brain sections from an untreated rat are stained with DAPI to illustrate the background nuclear staining under confocal imaging, respectively. The photo-/micrographs and magnified confocal images of the brain from the rat treated with IA 3% EA+2% EB solution are obtained for studies and comparison. The micrograph of the whole brain section is scanned by confocal microscopy to obtain the confocal images. The confocal images are further enlarged for observation.

[5] = test system: blood-brain barrier (BBB); test: Microcatheter 3% EA-mediated delivery of Alexa Fluor 647-labeled anti-human IgG antibody, confocal imaging (Experiment 25); assay type: in vivo; settings: 300 μL 3% EA via microcatheter then 10% labeled antibody, rats
Description: Following the perfusion of 300 μL of 3% EA through the intracerebral artery microcatheter, 10% Alexa Fluor® 647-labeled anti-human IgG antibody [EPR4421] (Ab307521, Abcam, UK) is slowly injected along the catheter (5-10 minutes). Two hours later, the brain tissue is perfused and removed after euthanasia. The pathological tissue sections are stained with DAPI, and confocal imaging is performed to evaluate the distribution of Alexa Fluor® 647-labeled anti-human IgG antibody in the rat brain. The experimental rats are injected with 300 μL of 0.9% NaCl without any concentration of EA as a negative control.
The blue color comes from the nuclei stained with DAPI. The pink color comes from the rabbit anti-human IgG antibody labeled with Alexa Fluor 647.

CCO [ethyl alcohol]
antibody staining (pink color) in brain, confocal ([1]; IA 3% EA+50 μg ALEXA FLUOR 647 anti-human IgG antibody, rats): even and widely spread pink color | antibody staining (pink color) in brain, confocal ([1]; IA 3% EA+50 μg goat anti-rat IgG (H+L) ALEXA FLUOR 647, rats): even and widely spread pink color | fluorescence of labeled antibody, left hemisphere vs right hemisphere ([1]; IA 3% EA+50 μg goat anti-rat IgG (H+L) ALEXA FLUOR 647 via left ICA catheter, rat): more dense fluorescence than the right hemisphere | time for which tight junction proteins in the BBB are reduced (tight junction proteins): about 120 minutes | Trastuzumab brain tumor entry (integrated optical density, confocal imaging) [2]: significantly enhance | time until disrupted BBB is restored [3]: around 2 hours | anti-PD-1 antibody brain tumor entry (brain tumor): can mediate checkpoint inhibitor anti-PD-1 antibody brain tumor entry | ultrastructure of brain tissues (TEM) (brain tissues): many open spaces | extravasated EB at the lowest concentration of EA ([4]; 300 μl 0.01% EA in 1 minute via left ICA catheter, rats): can still be visualized in the left hemisphere of the brain tissue | extravasated EB in coronal sections ([4]; 300 μl 5%, 3%, and 1% EA in 1 minute via left ICA catheter, 2 hours after, rats): spreading out homogeneously through almost the whole section of the left hemisphere of the brain | autofluorescence from EB/albumin by confocal microscopy ([4]; IA 3% EA+2% EB, whole brain section, left hemisphere, rat): massive spreading of autofluorescence | location of extravasated EB ([4]; left-side IA catheter, EA+2% EB, Fisher 344 rats): inside the left vitreous humor, but not inside the right | penetration and spread of Alexa Fluor 647-labeled anti-human IgG antibodies in the brain [5]: significantly improve the penetration and spread
